Results taken from patent US8722649B2, “Alpha-chloro and alpha-bromo phosphonate analogs of lysophosphatidic acid and methods of making and using thereof” (University of Utah Research Foundation, priority 2007, dated 2014).
“Also recorded” adds a separate entry of the source.

Columns and labels:
MDA-MB-231 cells = assay: Orthotopic breast cancer xenograft; assay type: in vivo, nude mice; details: 3 mg/kg i.p., relative to control group
Description: Orthotopic Human Breast Cancer Models. 4-week-old female athymic nude mice (Charles River Laboratories) were anesthetized by intraperitoneal injection of ketamine (80 mg/kg) and xylazine (10 mg/kg),according to the protocol approved by the University of Utah Institutional Animal Care and Use Committee (IACUC). Then the thoracic skin was sterilized with iodine and alcohol swabs.
MDA-MB-231 were trypsinized and resuspended in 2.5% CMHA-S and 3% gelatin-DTPH (v:v=1:1). Then, one volume of 4% PEGDA solution was added to four volumes of the cell suspension, and the resulting suspension was mixed gently by vortexing. The final cell concentration was 5×10^7 cells/ml. When the cell suspension was becoming viscous (ca. 3-5 min at 20° C.), 200 uL of gel was injected subcutaneously into the fourth mammary fat pad of each mouse, using a total of six mice per group.
The assessment of chemotherapy on breast cancer. The mice were randomly divided into 4 groups, including control (physiological saline), paclitaxel, LPA antagonist (19b), and paclitaxel followed by 19b. Six mice for each cell line were necessary to get statistically significant results according to literature. The control group received physiological saline i.p. injection twice per week starting at two weeks after the cell transplantation and ending at two weeks after the treatment. The treatment groups received i.p. administration of paclitaxel (10 mg/kg/day) or 19b (10 mg/kg/day) twice per week with the same period of control group. One additional group included 2 dose of paclitaxel followed by 2 dose of 19b with the same period of control group. The treatment was received […] twice per week for 2 weeks total.
The body weight and tumor size were measured twice per week, and general clinical status of the animals was also assessed every day. Perpendicular tumor diameters were measured using a vernier scale caliper and tumor volume estimated using the formula for ellipsoid: […] (mm^3)=[width(mm)^2×length(mm)]/2. Data are expressed as median tumor areas with interquartile ranges.
Animals were euthanized at 4 weeks postinjection or once any signs of broken skin caused by the extension of tumor are found. Tumors were excised with surrounding tissues for histological evaluation. Analysis of variance was used to analyze the statistical difference on tumor growth between different groups. The results are in FIG. 8, where it is shown that the volume of the tumors is the lowest when mice were treated with paclitaxel followed by the administration of 19b.
Xenograft establishment and chemotherapy. […] The tumor sizes were measured and calculated by formula: tumor size (mm^3)=[width (mm)]^2×[length (mm)]/2. […]

HCT 116 cells [1] = assay: HCT 116 proliferation (MTS); assay type: cell-based; details: 2, 10, 20 μM, 72 h
Text: Effects of bromo-LPA analogs on HCT 116 proliferation. HCT 116 cells were purchased from the American Type Culture Collection (Manassas, Mass.). Medium and reagents were obtained from the following sources: McCoy's 5a Medium (ATCC, Manassas, Va.); Penicillin-Streptomycin (MP biomedicals, Solon, Ohio); Fetal bovine serum (ATCC, Manassas, Mass.); Accutase (MP biomedicals, Solon, Ohio); MTS (Promega, Madison, Wis.); Matrigel (Becton Dickinson Labware, Cambridge, Mass.); Extracel (Glycosan, Salt Lake City, Utah). Lysophosphatidic acid receptor pan-Antagonist (LPAa)—the pure diastereomers 1a and 1b, and the mixed diastereomers 1 (University of Utah, Salt Lake City, Utah).
HCT 116 cells were maintained in McCoy's 5a medium supplemented with 10% FBS, 100 μg/ml streptomycin, and 100 units/ml penicillin at 37° C. in 95% air, 5% CO2. 4,000HCT-116 cells were seeded in 100 μl media in each well of 96-well flat-bottomed microplates (BD Labware, N.J.). The pure diastereomers 1a and 1b, and the mixed diastereomers 1 were added at various final concentrations (2 μM, 10 μM, 20 μM) to each column. At 72 h, pipet 20 μl MTS (Promega, Madison, Wis.) into each well, and cells were further incubated for 2 h. The absorbance of the samples at 490 nm was measured using a 96-well plate reader (OPTI max, Sunnyvale, Calif.).

HCT 116 cells [2] = assay: Hepatic colon cancer tumor growth; assay type: in vivo, nude mice; details: 10 mg/kg i.p. twice per week
Description: Four-week-old female athymic nude mice (Charles River Laboratories, Wilmington, Mass.) were used for colon cell implantation. All animals were maintained in a sterile environment. Cages, bedding, food, and water were all autoclaved. All animals were maintained on a daily 12-hr light/12-hr dark cycle.
Nude mice were anesthetized by intraperitoneal injection of ketamine (80 mg/kg) and xylazine (10 mg/kg) according to the protocol approved by the University of Utah Institutional Animal Care and Use Committee (IACUC).
After anesthesia induction, the aseptic surgical field was sterilized with iodine and alcohol swabs. HCT 116 cells (1×10^6) in 50 μl of the sECM hydrogel Extracel was directly injected into the livers of nude mice after they had been randomly assigned to one of the groups at the beginning of the experiment (8 mice/group).
The control group received physiological saline i.p. injection twice per week starting at one week after the cell transplantation and ended at two weeks after the treatment. The treatment group received i.p. administration of the pure diastereomers 1b at 10 mg/kg twice per week with the same period of control group.
Mice were observed daily. Animals were euthanized at 3 weeks post-injection in a carbon dioxide chamber. Body weights were measured, and the livers were excised. Liver weights and tumor diameters were subsequently determined. Colon tumors were measured using digital calipers. The volume of the cancer was then calculated according to the formula: Cancer Volume (CV)=d2×D/2, where d and D are the shortest and the longest diameters, respectively. After measurement, the tumor tissue was then harvested and placed in 10% formalin for paraffin embedding in preparation for the subsequent histological analyses.

CCCCCCCCCCCCCCCC(=O)OC[C@@H](O)C[C@@H](Br)P(=O)(O)O [Compound 1a]
tumor volume, separate diastereomers (MDA-MB-231 cells): significantly decreased the tumor volume; also recorded: reduces tumor size

CCCCCCCCCCCCCCCC(=O)OC[C@@H](O)C[C@H](Br)P(=O)(O)O [Compound 1b]
tumor volume, separate diastereomers (MDA-MB-231 cells): significantly decreased the tumor volume; also recorded: reduces tumor size
HCT 116 cell proliferation (HCT 116 cells [1]): highly suppressed; also recorded: dose-dependent inhibition
hepatic tumor burden (liver weight) (HCT 116 cells [2]): marked reduction of hepatic tumor burden; also recorded: significantly reduced tumor burden
new blood vessels in hepatic colon tumor (H&E) (HCT 116 cells [2]): significantly reduced amounts of new blood vessels
hepatic tumor size / tumor volume in words (HCT 116 cells [2]; vs untreated control): significantly smaller; also recorded: significant decrease in tumor volume; also recorded: smaller than the untreated control
